Test [1] relates to constitutive active colorectal cancer cell (CRC) Wnt pathway. Kind of test: HCT116 TOPFlash cellular reporter assay (Super TopFlash luciferase), constitutive active Wnt pathway. The test is classed as cell-based. The following applies: HCT116 TOP reporter cells, 36 hours incubation, luciferase expression. As to the method: In order to discover and characterize small molecules which inhibit the constitutive active colorectal cancer cell (CRC) Wnt pathway, a cellular reporter assay was employed. […] Stable transfectants were generated by cotransfection with pcDNA3 and selection of stable transfected cells with 1 mg/ml G418.

Test [2] has as its system HCT116 FOP control reporter cell line. Briefly: HCT116 FOPFlash control reporter assay (FOP control vector, non-functional TCF elements). The class given is cell-based. Particulars: HCT116 FOP control reporter cells, 36 hours incubation, luciferase expression. The source says:
In a parallel approach, HCT116 cells were cotransfected with the FOP control vector and pcDNA3. The FOP vector is identical to the TOP construct, but it contains instead of functional TCF elements a randomized, non-functional sequence. For this transfection a stable transfected cell line was generated as well.

Molecules are shown by their SMILES. Counter-ions that a name gives are not always drawn. Where only a bound is given, the exact number is not on record here.

Regarding `COCc1ccc(C(=O)Nc2nnc(-c3ccccc3C)s2)cc1NC(=O)CN1CCN(C)CC1` [Example 177, 4-(methoxymethyl)-N-[5-(2-methylphenyl)-1,3,4-thiadiazol-2-yl]-3-{[(4-methylpiperazin-1-yl)acetyl]amino}benzamide hydrochloride (1:1)], the IC50 in test [1] (Homo sapiens, HCT-116, 36 h) is 460 nM; in test [2] (Homo sapiens, HCT-116, 36 h) it was 35000 nM.

In the case of `CC(C(=O)Nc1cc(C(=O)Nc2ccc(-c3cc(F)cc(F)c3)nc2)ccc1OC(F)(F)F)N1CC2CCC(C1)O2` (centres unmarked) [Example 178, N-[6-(3,5-difluorophenyl)pyridin-3-yl]-3-{[2-(8-oxa-3-azabicyclo[3.2.1]oct-3-yl)propanoyl]amino}-4-(trifluoromethoxy)benzamide], the half-maximal inhibitory concentration (IC50) was 42.4 nM in test [1] and 3800 nM in test [2].

Turning to `CN(C)C1(C(=O)Nc2cc(C(=O)Nc3ccc(-c4ccccc4F)nc3)ccc2OC(F)(F)F)CC1` [Example 179, 3-({[1-(dimethylamino)cyclopropyl]carbonyl}amino)-N-[6-(2-fluorophenyl)pyridin-3-yl]-4-(trifluoromethoxy)benzamide], the IC50 in test [1] (Homo sapiens, HCT-116, 36 h) is 362 nM; in test [2] (Homo sapiens, HCT-116, 36 h) it was no less than 50000 nM.

On to `CC(C(=O)Nc1cc(C(=O)Nc2ccc(-c3cccc(F)c3)nc2)ccc1OC(F)(F)F)N1CCOCC1` (centres unmarked) [Example 182, N-[6-(3-fluorophenyl)pyridin-3-yl]-3-{[2-(morpholin-4-yl)propanoyl]amino}-4-(trifluoromethoxy)benzamide], for which the IC50 in test [1] worked out at 288 nM; in test [2] (Homo sapiens, HCT-116, 36 h), 44000 nM.

As for `CC(C(=O)Nc1cc(C(=O)Nc2ccc(-c3cccc(F)c3)nc2)ccc1OC(F)(F)F)N1CCOCC1` (centres unmarked) [Example 183, N-[6-(3-fluorophenyl)pyridin-3-yl]-3-{[2-(morpholin-4-yl)propanoyl]amino}-4-(trifluoromethoxy)benzamide], the IC50 in test [1] was 29 nM; in test [2], no less than 50000 nM.

Regarding `O=C(CN1C[C@@H]2C[C@H]1CO2)Nc1cc(NC(=O)c2ccc(-c3cc(F)cc(F)c3)nc2)ccc1OC(F)(F)F` [Example 184, 6-(3,5-difluorophenyl)-N-[3-{[(1S,4S)-2-oxa-5-azabicyclo[2.2.1]hept-5-ylacetyl]amino}-4-(trifluoromethoxy)phenyl] nicotinamide], the IC50 in test [1] (Homo sapiens, HCT-116, 36 h) amounted to 196 nM; in test [2] (Homo sapiens, HCT-116, 36 h), 11000 nM.

For `CC(C(=O)Nc1cc(NC(=O)c2ccc(-c3cc(F)cc(F)c3)nc2)ccc1OC(F)(F)F)N1CC2CCC(C1)O2` (centres unmarked) [Example 186, 6-(3,5-difluorophenyl)-N-[3-{[2-(8-oxa-3-azabicyclo[3.2.1]oct-3-yl)propanoyl]amino}-4-(trifluoromethoxy)phenyl] nicotinamide], the IC50 in test [1] stood at 95.5 nM; in test [2], 5400 nM.

For `CC(C(=O)Nc1cc(NC(=O)c2ccc(-c3cc(F)cc(F)c3)nc2)ccc1OC(F)(F)F)N1CCOCC1` (centres unmarked) [Example 187, 6-(3,5-difluorophenyl)-N-[3-{[2-(morpholin-4-yl)propanoyl]amino}-4-(trifluoromethoxy)phenyl] nicotinamide], the IC50 in test [1] (Homo sapiens, HCT-116, 36 h) worked out at 175 nM; in test [2], 42000 nM.

On to `CC(C(=O)Nc1cc(NC(=O)c2ccc(-c3cccc(F)c3)nc2)ccc1OC(F)(F)F)N1CC2CCC(C1)O2` (centres unmarked) [Example 188, 6-(3-fluorophenyl)-N-[3-{[2-(8-oxa-3-azabicyclo[3.2.1]oct-3-yl)propanoyl]amino}-4-(trifluoromethoxy)phenyl] nicotinamide], for which the IC50 in test [1] came to 120 nM; in test [2], 5500 nM.

Regarding `CC(C(=O)Nc1cc(NC(=O)c2ccc(-c3cccc(F)c3)nc2)ccc1OC(F)(F)F)N1CCOCC1` (centres unmarked) [Example 189, 6-(3-fluorophenyl)-N-[3-{[2-(morpholin-4-yl)propanoyl]amino}-4-(trifluoromethoxy)phenyl] nicotinamide], the IC50 came out at 138 nM in test [1] (Homo sapiens, HCT-116, 36 h) and 10000 nM in test [2].

For `CC(C(=O)Nc1cc(NC(=O)c2ccc(-c3cccc(F)c3)nc2)ccc1OC(F)(F)F)N1CCOCC1` (centres unmarked) [Example 190, 6-(3-fluorophenyl)-N-[3-{[2-(morpholin-4-yl)propanoyl]amino}-4-(trifluoromethoxy)phenyl] nicotinamide], the figures for the IC50 in test [1] and in test [2] were 87 nM and 9500 nM, respectively.

`O=C(CN1CCOCC1)Nc1cc(C(=O)Nc2nnc(-c3ccccc3)o2)ccc1OC(F)(F)F` [Example 191, 3-[(morpholin-4-ylacetyl)amino]-N-(5-phenyl-1,3,4-oxadiazol-2-yl)-4-(trifluoromethoxy)benzamide]: the IC50 in test [1] (Homo sapiens, HCT-116, 36 h) is 4100 nM; in test [2] (Homo sapiens, HCT-116, 36 h) it was no less than 50000 nM.

Consider `CC(C(=O)Nc1cc(C(=O)Nc2ccc(-c3cccc(F)c3)nc2)ccc1OC(F)(F)F)N1C[C@@H]2C[C@H]1CO2` (stereo partly drawn) [Example 192, N-[6-(3-fluorophenyl)pyridin-3-yl]-3-({2-[(1S,4S)-2-oxa-5-azabicyclo[2.2.1]hept-5-yl]propanoyl}amino)-4-(trifluoromethoxy)benzamide], for which the IC50 amounted to 135 nM in test [1] (Homo sapiens, HCT-116, 36 h) and 12400 nM in test [2] (Homo sapiens, HCT-116, 36 h).

As for `CC(C(=O)Nc1cc(C(=O)Nc2ccc(-c3cc(F)cc(F)c3)nc2)ccc1OC(F)(F)F)N1CC2CCC(C1)O2` (centres unmarked) [Example 194, N-[6-(3,5-difluorophenyl)pyridin-3-yl]-3-{[2-(8-oxa-3-azabicyclo[3.2.1]oct-3-yl)propanoyl]amino}-4-(trifluoromethoxy)benzamide], the IC50 in test [1] was 39.9 nM; in test [2], 35000 nM.

`CC(C(=O)Nc1cc(C(=O)Nc2ccc(-c3ccc(O)cc3)nc2)ccc1OC(F)(F)F)N1CCOCC1` (centres unmarked) [Example 195, N-[6-(4-hydroxyphenyl)pyridin-3-yl]-3-{[2-(morpholin-4-yl)propanoyl]amino}-4-(trifluoromethoxy)benzamide]: the IC50 in test [1] (Homo sapiens, HCT-116, 36 h) was 222 nM; in test [2] (Homo sapiens, HCT-116, 36 h), no less than 50000 nM.

For `CC(C(=O)Nc1cc(C(=O)Nc2ccc(-c3ccccc3F)nc2)ccc1OC(F)(F)F)N1CCN(C2CC2)CC1` (centres unmarked) [Example 196, 3-{[2-(4-cyclopropylpiperazin-1-yl)propanoyl]amino}-N-[6-(2-fluorophenyl)pyridin-3-yl]-4-(trifluoromethoxy)benzamide], the IC50 in test [1] (Homo sapiens, HCT-116, 36 h) is 143 nM; in test [2] (Homo sapiens, HCT-116, 36 h), no less than 50000 nM.

Regarding `CN1CCN(CC(=O)Nc2cc(C(=O)Nc3ccc(-c4ccccc4F)nc3)ccc2OC(F)(F)F)CC1` [Example 197, N-[6-(2-fluorophenyl)pyridin-3-yl]-3-{[(4-methylpiperazin-1-yl)acetyl]amino}-4-(trifluoromethoxy)benzamide], the IC50 is 1200 nM in test [1] (Homo sapiens, HCT-116, 36 h) and 34000 nM in test [2] (Homo sapiens, HCT-116, 36 h).

Regarding `CC(C(=O)Nc1cc(NC(=O)c2ccc(-c3cc(F)cc(F)c3)nc2)ccc1OC(F)(F)F)N1C[C@@H]2C[C@H]1CO2` (stereo partly drawn) [Example 198, 6-(3,5-difluorophenyl)-N-[3-({2-[(1S,4S)-2-oxa-5-azabicyclo[2.2.1]hept-5-yl]propanoyl}amino)-4-(trifluoromethoxy)phenyl] nicotinamide], the IC50 in test [1] (Homo sapiens, HCT-116, 36 h) amounted to 144 nM; in test [2] (Homo sapiens, HCT-116, 36 h), 15000 nM.

In the case of `CC(C(=O)Nc1cc(NC(=O)c2ccc(-c3cccc(F)c3)nc2)ccc1OC(F)(F)F)N1C[C@@H]2C[C@H]1CO2` (stereo partly drawn) [Example 199, 6-(3-fluorophenyl)-N-[3-({2-[(1S,4S)-2-oxa-5-azabicyclo[2.2.1]hept-5-yl]propanoyl}amino)-4-(trifluoromethoxy)phenyl] nicotinamide], the IC50 in test [1] (Homo sapiens, HCT-116, 36 h) is 71.7 nM; in test [2] (Homo sapiens, HCT-116, 36 h), 8800 nM.

For the compound `CC(C(=O)Nc1cc(NC(=O)c2ccc(-c3cccc(F)c3)nc2)ccc1OC(F)(F)F)N1CC2CCC(C1)O2` (centres unmarked) [Example 200, 6-(3-fluorophenyl)-N-[3-{[2-(8-oxa-3-azabicyclo[3.2.1]oct-3-yl)propanoyl]amino}-4-(trifluoromethoxy)phenyl] nicotinamide], the half-inhibitory concentration (IC50) in test [1] was determined as 190 nM; in test [2], 6400 nM.

With `CC(C(=O)Nc1cc(NC(=O)c2ccc(-c3cccc(F)c3)nc2)ccc1OC(F)(F)F)N1CCOCC1` (centres unmarked) [Example 201, 6-(3-fluorophenyl)-N-[3-{[2-(morpholin-4-yl)propanoyl]amino}-4-(trifluoromethoxy)phenyl] nicotinamide], the values for the IC50 in test [1] and in test [2] were 106 nM and 28600 nM, respectively.

Take `CC(C(=O)Nc1cc(NC(=O)c2ccc(-c3cc(F)cc(F)c3)nc2)ccc1OC(F)(F)F)N1CC2CCC(C1)O2` (centres unmarked) [Example 202, 6-(3,5-difluorophenyl)-N-[3-{[2-(8-oxa-3-azabicyclo[3.2.1]oct-3-yl)propanoyl]amino}-4-(trifluoromethoxy)phenyl] nicotinamide]: the values for the IC50 in test [1] and in test [2] were 200 nM and 5800 nM, respectively.

Take `CC(C(=O)Nc1cc(NC(=O)c2ccc(-c3cc(F)cc(F)c3)nc2)ccc1OC(F)(F)F)N1CCOCC1` (centres unmarked) [Example 203, 6-(3,5-difluorophenyl)-N-[3-{[2-(morpholin-4-yl)propanoyl]amino}-4-(trifluoromethoxy)phenyl] nicotinamide]: the IC50 was found to be 124 nM in test [1] and 15200 nM in test [2].

For the compound `CC(C(=O)Nc1cc(NC(=O)c2ccc(-c3ccccc3F)nc2)ccc1OC(F)(F)F)N1CC2CCC(C1)O2` (centres unmarked) [Example 204, 6-(2-fluorophenyl)-N-[3-{[2-(8-oxa-3-azabicyclo[3.2.1]oct-3-yl)propanoyl]amino}-4-(trifluoromethoxy)phenyl] nicotinamide], the IC50 in test [1] was 76.5 nM; in test [2] it was 32800 nM.

For the compound `CC(C(=O)Nc1cc(NC(=O)c2ccc(-c3ccccc3F)nc2)ccc1OC(F)(F)F)N1CC2CCC(C1)O2` (centres unmarked) [Example 205, 6-(2-fluorophenyl)-N-[3-{[2-(8-oxa-3-azabicyclo[3.2.1]oct-3-yl)propanoyl]amino}-4-(trifluoromethoxy)phenyl] nicotinamide], the IC50 in test [1] was 20.2 nM; in test [2] it was 18200 nM.
